Patent publication US20230382925A1, “MODULATORS OF CYSTIC FIBROSIS TRANSMEMBRANE CONDUCTANCE REGULATOR” (VERTEX PHARMACEUTICALS INCORPORATED, priority 2020, published 2023)
Several values for one entry are separate records, joined by “and”; a condition that tells them apart may be missing. Equal values may be shown once. Read-outs that look alike come from different tables or passages of the source.

Assays:
[1] = amide bond, 13-membered ring
CFTR = CFTR (Homo sapiens, UniProt P13569); assay: Membrane Potential Dye, Enteroid Assay B; assay type: cell-based
CFTR, sequence (P13569 with tags, fused parts or gaps DEL508-508): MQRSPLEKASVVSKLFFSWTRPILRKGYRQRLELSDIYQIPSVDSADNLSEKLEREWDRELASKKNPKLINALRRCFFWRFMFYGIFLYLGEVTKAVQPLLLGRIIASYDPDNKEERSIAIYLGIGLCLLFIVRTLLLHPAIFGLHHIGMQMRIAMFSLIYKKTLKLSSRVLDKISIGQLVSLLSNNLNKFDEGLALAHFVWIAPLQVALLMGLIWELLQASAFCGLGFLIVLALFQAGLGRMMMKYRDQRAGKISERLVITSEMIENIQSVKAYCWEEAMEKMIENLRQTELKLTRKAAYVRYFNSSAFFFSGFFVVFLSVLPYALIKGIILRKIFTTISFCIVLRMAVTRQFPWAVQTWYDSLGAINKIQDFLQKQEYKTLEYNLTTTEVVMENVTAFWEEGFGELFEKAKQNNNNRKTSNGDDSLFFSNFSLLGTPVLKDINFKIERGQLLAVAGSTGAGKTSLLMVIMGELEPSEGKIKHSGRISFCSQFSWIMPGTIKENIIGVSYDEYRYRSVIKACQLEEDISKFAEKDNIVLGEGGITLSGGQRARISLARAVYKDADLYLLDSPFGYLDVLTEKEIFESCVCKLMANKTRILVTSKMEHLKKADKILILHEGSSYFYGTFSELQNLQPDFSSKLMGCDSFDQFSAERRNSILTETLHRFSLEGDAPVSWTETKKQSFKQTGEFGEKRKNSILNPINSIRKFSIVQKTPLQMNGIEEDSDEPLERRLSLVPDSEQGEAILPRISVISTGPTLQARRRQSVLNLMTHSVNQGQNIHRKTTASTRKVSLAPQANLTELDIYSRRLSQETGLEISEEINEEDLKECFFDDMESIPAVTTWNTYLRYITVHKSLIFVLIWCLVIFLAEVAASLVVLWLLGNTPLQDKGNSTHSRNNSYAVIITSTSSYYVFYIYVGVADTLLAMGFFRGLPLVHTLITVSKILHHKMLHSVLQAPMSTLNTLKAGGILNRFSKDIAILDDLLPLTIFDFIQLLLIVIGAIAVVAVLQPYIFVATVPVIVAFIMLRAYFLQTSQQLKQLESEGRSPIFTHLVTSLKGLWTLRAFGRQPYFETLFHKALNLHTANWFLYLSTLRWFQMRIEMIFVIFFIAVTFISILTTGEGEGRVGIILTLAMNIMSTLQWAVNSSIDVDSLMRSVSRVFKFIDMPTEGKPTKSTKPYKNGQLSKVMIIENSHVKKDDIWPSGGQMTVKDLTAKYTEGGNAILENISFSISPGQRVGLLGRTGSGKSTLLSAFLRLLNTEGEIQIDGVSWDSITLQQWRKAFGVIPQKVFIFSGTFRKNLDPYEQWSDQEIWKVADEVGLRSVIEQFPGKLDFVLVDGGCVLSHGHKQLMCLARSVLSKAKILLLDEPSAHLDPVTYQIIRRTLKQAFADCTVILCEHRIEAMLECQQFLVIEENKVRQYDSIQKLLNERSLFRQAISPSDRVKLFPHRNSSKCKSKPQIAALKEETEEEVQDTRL
Method in brief: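 Human intestinal enteroid cells exposed to compound 18-24 h at 37 °C, then loaded with methyl oxonol membrane-potential dye plus CaCC blockers. Chloride transport triggered in chloride-free buffer with 10 μM forskolin, 100 μM IBMX, 300 nM Compound III; fluorescence read 15 min, expressed as % of triple-corrector/potentiator combination control.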

[2] = Table 10, read-out: Ent. B EC50

Q: For `Cc1cccc(C)c1-c1cc2nc(n1)NS(=O)(=O)c1cccc(c1)C(=O)N(C1CC(NC(=O)OC(C)(C)C)C1)[C@H](CC1(C(F)(F)F)CC1)CO2` (stereo partly drawn), which ring closure, isolated yield ([1]; from Cc1cccc(C)c1-c1cc(OC[C@@H](CC2(C(F)(F)F)CC2)NC2CC(NC(=O)OC(C)(C)C)C2)nc(NS(=O)(=O)c2cccc(C(=O)O)c2)n1, HATU/DIPEA, DMF, 28.6 mM, 16.0 h) is on record?
A: Its ring closure, isolated yield is 61%.

Q: Which ring closure, isolated yield ([1]; from Cc1cccc(C)c1-c1cc(OC[C@@H](CC2(C(F)(F)F)CC2)NC2CC3(C2)CN(C(=O)OC(C)(C)C)C3)nc(NS(=O)(=O)c2cccc(C(=O)O)c2)n1, HATU/TEA, DMF, 35.1 mM, 22.0 h) does the source give for `Cc1cccc(C)c1-c1cc2nc(n1)NS(=O)(=O)c1cccc(c1)C(=O)N(C1CC3(C1)CN(C(=O)OC(C)(C)C)C3)[C@H](CC1(C(F)(F)F)CC1)CO2` here?
A: Its ring closure, isolated yield is 49%.

Q: Which ring closure, isolated yield ([1]; from COC(=O)CC1CC(N[C@@H](COc2cc(-c3c(C)cccc3C)nc(NS(=O)(=O)c3cccc(C(=O)O)c3)n2)CC(C)(C)C)C1, COMU/DIEA, DMF, 47.0 mM, 18.0 h) does the source give for `COC(=O)CC1CC(N2C(=O)c3cccc(c3)S(=O)(=O)Nc3nc(cc(-c4c(C)cccc4C)n3)OC[C@H]2CC(C)(C)C)C1` (stereo partly drawn) here?
A: The ring closure, isolated yield was 79%.

Q: With `COC(=O)C1CC2(C1)CC(N1C(=O)c3cccc(c3)S(=O)(=O)Nc3nc(cc(-c4c(C)cccc4C)n3)OC[C@H]1CCC(C)C)C2` (stereo partly drawn) as the molecule, how does the ring closure, isolated yield ([1]; HATU/DIEA, DMF, 25.0 °C, 2 steps) read?
A: The ring closure, isolated yield was 20%.

Q: For `Cc1cccc(C)c1-c1cc2nc(n1)NS(=O)(=O)c1cccc(c1)C(=O)N(C1[C@@H]3C[C@H]1CN(C(=O)OC(C)(C)C)C3)[C@H](CC(C)(C)C)CO2` (stereo partly drawn), which ring closure, isolated yield ([1]; from Cc1cccc(C)c1-c1cc(OC[C@@H](CC(C)(C)C)NC2C3CC2CN(C(=O)OC(C)(C)C)C3)nc(NS(=O)(=O)c2cccc(C(=O)O)c2)n1, COMU/DIEA, DMF, 8.4 mM, 25.0 °C, 24.0 h) is on record?
A: The ring closure, isolated yield was 17%.

Q: With `COC(=O)C1CC(N2C(=O)c3cccc(c3)S(=O)(=O)Nc3nc(cc(-c4c(C)cccc4C)n3)OC[C@H]2CC(C)(C)C)C1` (stereo partly drawn) as the molecule, how does the ring closure, isolated yield ([1]; from COC(=O)C1CC(N[C@@H](COc2cc(-c3c(C)cccc3C)nc(NS(=O)(=O)c3cccc(C(=O)O)c3)n2)CC(C)(C)C)C1, COMU/DIEA, DMF, 25.2 mM, 25.0 °C, 21.0 h) read?
A: Its ring closure, isolated yield is 25% and 34%.

Q: For `Cc1cccc(C)c1-c1cc2nc(n1)NS(=O)(=O)c1cccc(c1)C(=O)N(C1CC3(CC(NC(=O)OC(C)(C)C)C3)C1)[C@H](CC1(C(F)(F)F)CC1)CO2` (stereo partly drawn), which ring closure, isolated yield ([1]; from Cc1cccc(C)c1-c1cc(OC[C@@H](CC2(C(F)(F)F)CC2)NC2CC3(CC(NC(=O)OC(C)(C)C)C3)C2)nc(NS(=O)(=O)c2cccc(C(=O)O)c2)n1, HATU/DIEA, DMF, 99.2 mM, 18.0 h) is on record?
A: Its ring closure, isolated yield is 74%.

Q: For `Cc1cccc(C)c1-c1cc2nc(n1)NS(=O)(=O)c1cccc(c1)C(=O)N(C1CC3(C1)CC1(C3)OCCO1)[C@H](CC(C)(C)C)CO2`, which ring closure, isolated yield ([1]; from Cc1cccc(C)c1-c1cc(OC[C@@H](CC(C)(C)C)NC2CC3(C2)CC2(C3)OCCO2)nc(NS(=O)(=O)c2cccc(C(=O)O)c2)n1, COMU/DIEA, DMF, 71.6 mM, 16.0 h) is on record?
A: Its ring closure, isolated yield is 76%.

Q: With `CC(C)C[C@@H]1COc2cc(Cl)nc(n2)NS(=O)(=O)c2cccc(c2)C(=O)N1C1CC2(CCN(C(=O)OC(C)(C)C)CC2)C1` as the molecule, how does the ring closure, isolated yield ([1]; from CC(C)C[C@H](COc1cc(Cl)nc(NS(=O)(=O)c2cccc(C(=O)O)c2)n1)NC1CC2(CCN(C(=O)OC(C)(C)C)CC2)C1, HATU/TEA, DMF, 154.9 mM, 25.0 °C, 16.0 h) read?
A: The ring closure, isolated yield was 41%.

Q: What does the source list for `Cc1cccc(C)c1-c1cc2nc(n1)NS(=O)(=O)c1cccc(c1)C(=O)N(C1CC3(CCN(C(=O)OC(C)(C)C)CC3)C1)[C@H](CC(C)(C)C(F)(F)F)CO2` [Compound 187, tert-Butyl 2-[(11R)-6-(2,6-dimethylphenyl)-2,2,13-trioxo-11-(3,3,3-trifluoro-2,2-dimethylpropyl)-9-oxa-2λ^6-thia-3,5,12,19-tetraazatricyclo[12.3.1.14,8]nonadeca-1(17),4(19),5,7,14(18),15-hexaen-12-yl]-7-azaspiro[3.5]nonane-7-carboxylate]?
A: ring closure, isolated yield ([1]; from Cc1cccc(C)c1-c1cc(OC[C@@H](CC(C)(C)C(F)(F)F)NC2CC3(CCN(C(=O)OC(C)(C)C)CC3)C2)nc(NS(=O)(=O)c2cccc(C(=O)O)c2)n1, HATU/DIEA, DMF, 37.7 mM, 17.0 h): 15%; Ent. B Max Activity (%) (CFTR; Table 9): +++ (+++ is >60%); EC50 (CFTR; Table 9, read-out: Ent. B EC50): < 1000 nM

Q: For `Cc1cccc(C)c1-c1cc2nc(n1)NS(=O)(=O)c1cccc(c1)C(=O)N(C1CC3(CCN(C(=O)OC(C)(C)C)C3)C1)[C@H](CC(C)C)CO2` (stereo partly drawn), which ring closure, isolated yield ([1]; from Cc1cccc(C)c1-c1cc(OC[C@@H](CC(C)C)NC2CC3(CCN(C(=O)OC(C)(C)C)C3)C2)nc(NS(=O)(=O)c2cccc(C(=O)O)c2)n1, HATU/DIEA, DMF, 25.0 °C, 3.0 h, 2 steps) is on record?
A: The ring closure, isolated yield was 67%.

Q: Which ring closure, isolated yield ([1]; from Cc1cccc(C)c1-c1cc(OC[C@@H](CC(C)(C)C)NC2CC(C(=O)OC(C)C)(C(=O)OC(C)C)C2)nc(NS(=O)(=O)c2cccc(C(=O)O)c2)n1, COMU/DIEA, DMF, 18.6 mM, 25.0 °C, 21.0 h) does the source give for `Cc1cccc(C)c1-c1cc2nc(n1)NS(=O)(=O)c1cccc(c1)C(=O)N(C1CC(C(=O)OC(C)C)(C(=O)OC(C)C)C1)[C@H](CC(C)(C)C)CO2` here?
A: Its ring closure, isolated yield is 20%.

Q: Which ring closure, isolated yield ([1]; from CC(C)C[C@H](COc1cc(Cl)nc(NS(=O)(=O)c2cccc(C(=O)O)c2)n1)NC1CC2(CC2)C1, HATU/DIEA, DMF, 16.5 mM, 17.0 h) does the source give for `CC(C)C[C@@H]1COc2cc(Cl)nc(n2)NS(=O)(=O)c2cccc(c2)C(=O)N1C1CC2(CC2)C1` here?
A: The ring closure, isolated yield was 58%.

Q: With `Cc1cccc(C)c1-c1cc2nc(n1)NS(=O)(=O)c1cccc(c1)C(=O)N(C1CC3(CCN(C(=O)OC(C)(C)C)CC3)C1)[C@H](CC1(C(F)(F)F)CC1)CO2` [Compound 127, tert-butyl 2-[(11R)-6-(2,6-dimethylphenyl)-2,2,13-trioxo-11-[[1-(trifluoromethyl)cyclopropyl]methyl]-9-oxa-2λ^6-thia-3,5,12,19-tetrazatricyclo[12.3.1.14,8]nonadeca-1(18),4(19),5,7,14,16-hexaen-12-yl]-7-azaspiro[3.5]nonane-7-carboxylate] as the molecule, how does the ring closure, isolated yield ([1]; from Cc1cccc(C)c1-c1cc(OC[C@@H](CC2(C(F)(F)F)CC2)NC2CC3(CCN(C(=O)OC(C)(C)C)CC3)C2)nc(NS(=O)(=O)c2cccc(C(=O)O)c2)n1, HATU/DIEA, DMF, 65.3 mM, 16.0 h) read?
A: The ring closure, isolated yield was 59%.

Q: And the “Ent. B Max Activity (%)” value (CFTR)?
A: The value was “+++ (+++ is >60%)”.

Q: What about the EC50 (CFTR; read-out: Ent. B EC50) of the same molecule?
A: Its EC50 is less than 1000 nM.

Q: With `Cc1cccc(C)c1-c1cc2nc(n1)NS(=O)(=O)c1cccc(c1)C(=O)N(C1CC3(CCN(C(=O)OC(C)(C)C)CC3)C1)[C@@H](CC(C)C)CO2` as the molecule, how does the ring closure, isolated yield ([1]; from Cc1cccc(C)c1-c1cc(OC[C@H](CC(C)C)NC2CC3(CCN(C(=O)OC(C)(C)C)CC3)C2)nc(NS(=O)(=O)c2cccc(C(=O)O)c2)n1, HATU/DIEA, DMF/THF, 16.0 h, 2 steps) read?
A: Its ring closure, isolated yield is 18%.

Q: Which ring closure, isolated yield ([1]; from Cc1cccc(C)c1-c1cc(OC[C@@H](CC(C)(C)C)NC2CC3(CC(NC(=O)OC(C)(C)C)C3)C2)nc(NS(=O)(=O)c2cccc(C(=O)O)c2)n1, HATU/DIEA, DMF, 107.7 mM, 24.0 h) does the source give for `Cc1cccc(C)c1-c1cc2nc(n1)NS(=O)(=O)c1cccc(c1)C(=O)N(C1CC3(CC(NC(=O)OC(C)(C)C)C3)C1)[C@H](CC(C)(C)C)CO2` (stereo partly drawn) [Compound 199] here?
A: The ring closure, isolated yield was 63%.

Q: What about the ring closure, isolated yield ([1]; from Cc1cccc(C)c1-c1cc(OC[C@@H](CC(C)(C)C)NC2CC3(CC(NC(=O)OC(C)(C)C)C3)C2)nc(NS(=O)(=O)c2cccc(C(=O)O)c2)n1, HATU/DIEA, DMF, 120.7 mM, 36.0 h) of the same molecule?
A: The ring closure, isolated yield was 80%.

Q: And the “Ent. B Max Activity (%)” value (CFTR; Table 10)?
A: Its value is “+++ (+++ is >60%)”.

Q: What about the EC50 (CFTR; [2]) of the same molecule?
A: Its EC50 is less than 1000 nM.

Q: For `Cc1cccc(C)c1-c1cc2nc(n1)NS(=O)(=O)c1cccc(c1)C(=O)N(C1CC3(CCN(C(=O)OC(C)(C)C)CC3)C1)C[C@@H](C)O2`, which ring closure, isolated yield ([1]; from Cc1cccc(C)c1-c1cc(O[C@H](C)CNC2CC3(CCN(C(=O)OC(C)(C)C)CC3)C2)nc(NS(=O)(=O)c2cccc(C(=O)O)c2)n1, HATU/DIEA, DMF, 8.8 mM, 6.0 h, 2 steps) is on record?
A: The ring closure, isolated yield was 28%.

Q: For `Cc1cccc(C)c1-c1cc2nc(n1)NS(=O)(=O)c1cccc(c1)C(=O)N(C1CCN(C(=O)OC(C)(C)C)C1)[C@H](CC(C)C)CO2` (stereo partly drawn), which ring closure, isolated yield ([1]; from Cc1cccc(C)c1-c1cc(OC[C@@H](CC(C)C)NC2CCN(C(=O)OC(C)(C)C)C2)nc(NS(=O)(=O)c2cccc(C(=O)O)c2)n1, COMU/DIPEA, DMF, 10.0 mM, 16.0 h, 2 steps) is on record?
A: The ring closure, isolated yield was 28%.

Q: For `COC(=O)C1CC2(C1)CC(N1C(=O)c3cccc(c3)S(=O)(=O)Nc3nc(cc(-c4c(C)cccc4C)n3)OC[C@H]1CC(C)(C)C)C2` (stereo partly drawn), which ring closure, isolated yield ([1]; from COC(=O)C1CC2(CC(N[C@@H](COc3cc(-c4c(C)cccc4C)nc(NS(=O)(=O)c4cccc(C(=O)O)c4)n3)CC(C)(C)C)C2)C1, COMU/DIEA, DMF, 16.0 h, 2 steps) is on record?
A: Its ring closure, isolated yield is 51%.

Q: For `Cc1cccc(C)c1-c1cc2nc(n1)NS(=O)(=O)c1cccc(c1)C(=O)N(C1CC3(CC3)C1)[C@H](CC(C)(C)O)CO2` [Compound 51, (11R)-6-(2,6-Dimethylphenyl)-11-(2-hydroxy-2-methyl-propyl)-2,2-dioxo-12-spiro[2.3]hexan-5-yl-9-oxa-2λ^6-thia-3,5,12,19-tetrazatricyclo[12.3.1.14,8]nonadeca-1(18),4(19),5,7,14,16-hexaen-13-one], which ring closure, isolated yield ([1]; from Cc1cccc(C)c1-c1cc(OC[C@@H](CC(C)(C)O)NC2CC3(CC3)C2)nc(NS(=O)(=O)c2cccc(C(=O)O)c2)n1, T3P/Et3N, DMF/EtOAc, 26.4 mM, 4.0 h) is on record?
A: Its ring closure, isolated yield is 17%.

Q: And the “Ent. B Max Activity (%)” value (CFTR; Table 10)?
A: Its value is “+++ (+++ is >60%)”.

Q: What about the EC50 (CFTR; [2]) of the same molecule?
A: The EC50 was 1000 to 3000 nM.

Q: For `Cc1cccc(C)c1-c1cc2nc(n1)NS(=O)(=O)c1cccc(c1)C(=O)N(C1CC3(COC(=O)N3)C1)[C@H](CC(C)(C)C)CO2` (stereo partly drawn), which ring closure, isolated yield ([1]; from Cc1cccc(C)c1-c1cc(OC[C@@H](CC(C)(C)C)NC2CC3(COC(=O)N3)C2)nc(NS(=O)(=O)c2cccc(C(=O)O)c2)n1, COMU/DIEA, DMF, 13.0 mM, 25.0 °C, 3.0 h, 2 steps) is on record?
A: Its ring closure, isolated yield is 8% and 3%.
